{
  "source": "patent US7892557B2",
  "about": "“Peptide mimotopes of mycobacterial mannosylated lipoglycans and uses thereof” (priority 2004, dated 2011)",
  "key": {"[1]": {"system": "IgG antibodies in sera of Mtb-infected mice", "type": "binding, BALB/c mice"}, "CS40 anti-ManLAM mAb": {"system": "CS40 anti-ManLAM mAb", "experiment": "ELISA competition vs. ManLAM for CS40 mAb", "type": "binding", "settings": "50 μg/ml of peptide; FIG. 1B", "experimental": "Binding efficacy of the amino acid molecule to ManLAM binding antibodies may be evaluated by determining the magnitude of OD decrease when serial dilutions of phage clones/amino acid molecule are incubated with CS40 mAb. The phage clones/amino acid molecule with a higher affinity to mAb will show maximum inhibition of the binding of the mAb to ManLAM with the lowest number of phage particles or lowest amount of amino acid molecule, respectively.\nELISA competition assay was performed according to Kaur et al., [Kaur, D., et al. Microbiology 148:3049-3057 (2002)]. Briefly, plates were coated with 0.5 μg/well ManLAM. Plates were blocked as described above. The CS40 mAb (diluted 1:2000) was mixed with various concentrations of either phage particles in TBS/1% BSA ([…]) or peptides in PBS/1% BSA (0-200 μg/well). […] After washing (PBS), the ELISA procedure was performed as described above. Samples were all tested in triplicate\nEfficiency of binding was evaluated by the magnitude of OD decrease when serial dilutions of phage clones were incubated with the CS40 mAb."}, "[2]": {"system": "serum antibodies of TB patients", "experiment": "Direct ELISA of human sera on B11 peptide or ManLAM coated plates", "settings": "FIG. 4", "quoted_text": "Direct ELISA assays were performed by coating 96-well ELISA plates (O/N at 4° C.) with 5-20 μg peptide per well in PBS ManLAM 5 μg/well (50 μl/well). The plates were washed twice in phosphate buffered saline (PBS), blocked with PBS/1% BSA and then washed twice (PBS). Sera diluted in PBS/0.5% BSA (1:50 or 1:200) or CS40 mAb (1:2000) (50 μl per well) was added and incubated for 1 h at 37° C. After washing, alkaline phosphatase-labeled goat anti-mouse immunoglobulin (Sigma, St. Louis, Mo.) was added. Following 90-min incubation at 37° C., p-nitrophenyl phosphate (KPL, Gaithersburg, Md.) was added to the plates, and optical density was measured at 405 nm using ELISA reader (ELX-800UV, Bio-Tec instruments, Winooski, Vt.). In all ELISA procedures, samples were tested in triplicate.\nThe presence of serum antibodies in sera of TB patients that bind the B11 peptide was tested. […] Using ELISA, sera from Bacillus Calmette Guerin (BCG)-vaccinated individuals (n=10) was tested, as it is sometimes difficult to distinguish BCG-vaccinated individuals from TB patients [Ciesielski, S. D., J Fam Pract 40:76-80 (1995)]."}, "CS40 mAb": {"system": "CS40 mAb", "experiment": "Direct peptide ELISA with CS40 mAb", "type": "binding", "settings": "synthetic peptide coated plates"}, "RAW 264.7 cell line [3]": {"system": "RAW 264.7 cell line", "experiment": "Confocal microscopy of FITC-labeled B11 peptide binding to RAW 264.7 cell line", "type": "cell-based, murine", "settings": "FIG. 5A", "experimental": "(§1) The cell line RAW 264.7 obtained from the American Type Culture Collection was grown in Dulbecco's modified Eagle's medium (DMEM) supplemented with 10% FCS, 1% penicillin, 1% L-glutamine, 1% nonessential amino acids, and 1% pyruvate (Biological Industries, Beit Haemek, Israel) to an 80% confluent culture at 37° C. in an atmosphere enriched with 5% CO2.\nB11 peptide (50 μg) was conjugated to FITC (Biotium, Hayward, Calif.) as described by Sethi et al., [Sethi, K. K., et al. Cell Motil Cytoskeleton 52:231-241 (2002)]. For confocal microscopy, RAW 264.7 cells were grown in 8-well glass slides, Chamber Slide™ (Nunc), as described above. Cells were washed three times in cold PBS and incubated with the FITC-labeled mimotope for 5 min at 4° C. in serial dilutions of 1:2-1:100 in cold PBS. Slides were imaged immediately with a Zeiss 410 confocal laser scanning microscope."}, "RAW 264.7 cell line [4]": {"system": "RAW 264.7 cell line", "experiment": "FACS analysis of FITC-labeled mimotope binding to RAW 264.7 cell line", "type": "cell-based, murine", "experimental": "as §1\nRAW 264.7 cells were grown in a 250-ml flask, washed 3 times in cold PBS, and harvested. Cells were then incubated for 15 min at 37° C., with the FITC-labeled peptide diluted 1:50, then washed 3 times in cold PBS. The fluorescence levels of 10,000 cell counts were determined by FACS (Becton Dickinson, Franklin Lakes, N.J.) and analyzed by CELLQuest™ software. Assay of competitive binding between mannose and the FITC-labeled B11 peptide was performed according to Nguyen and Hildreth, [Nguyen, D. G., and Hildreth, J. E. Eur J Immunol 33:483-493 (2003)]."}},
  "note": "Ends that are not written are not given here.",
  "data": [
    {"substance": "CISLTEWSMWYRH (random phage display library) [SEQ ID NO: 10, B11 peptide with additional cysteine residue at the amino terminus]", "values": [
      {"measurement": "binding properties to ManLAM-binding antibodies compared with original peptide", "setting": "[1]; ELISA with extra cysteine at the amino terminus, data not shown", "result": "maintained binding properties"}
    ]},
    {"substance": "ISLTEWSMWYRH (random phage display library) [B11 peptide, dodecamer peptide mimotope of ManLAM]", "values": [
      {"measurement": "IgG Abs in sera of Mtb-infected mice binding the antigen, vs. naive mice", "setting": "[1]", "result": "significantly higher"},
      {"measurement": "decrease in OD in competitive ELISA vs. ManLAM", "setting": "CS40 anti-ManLAM mAb", "result": 100, "unit": "%"},
      {"measurement": "anti-peptide antibody titers in BCG-vaccinated individuals vs. TB patients", "setting": "[2]; BCG-vaccinated (n=10), p<0.001", "result": "significantly lower"},
      {"measurement": "antigen-binding antibody titers in sera of TB patients vs. healthy individuals", "setting": "[2]; TB patients (n=16) vs. healthy individuals (n=36)", "result": "Significantly higher titers"},
      {"measurement": "binding to CS40 mAb by direct ELISA", "setting": "CS40 mAb", "result": "bound"}
    ]},
    {"substance": "FITC-conjugated B11 peptide: B11 peptide conjugated to FITC (ISLTEWSMWYRH; also: FITC-conjugated, position not given here)", "values": [
      {"measurement": "binding to macrophage cell line RAW 264.7 by confocal microscopy", "setting": "RAW 264.7 cell line [3]", "result": "bound"},
      {"measurement": "effect of D-mannose on binding to macrophages (FACS)", "setting": "RAW 264.7 cell line [4]; 0.125 M D-mannose added, FIG. 5C", "result": "inhibited"},
      {"measurement": "binding to macrophage cell line RAW 264.7 by FACS analysis", "setting": "RAW 264.7 cell line [4]; FITC-labeled peptide diluted 1:50, FIG. 5B", "result": "bound"}
    ]}
  ]
}
